Experimental data reported in patent publication US7223733B2, “Modulation of TRIP-Br function and method of treating proliferative disorders” (National University of Singapore, priority 2004, dated 2007).
Where no end group is shown, it is not given here. [invdT] = inverted (3'-3') thymidine

Tests used:
[1] = test system: cyclins A, D and E; assay: Western blot of cyclins A, D and E in U2OS cells exposed to decoy peptides; type: cell-based, human; conditions: U2OS, 5, 10 or 20 μM, 48 h
Procedure: Denaturing SDS-PAGE and western blotting. Proteins from whole cell lysate and IP complexes were separated using standard denaturing polyacrylamide gel electrophoresis as described previously (Hsu, S. I. H., et al. EMBO J 20, 2273-2285 (2001)).
FIG. 8: The role(s) of the TRIP-Br integrator function in cyclin E regulation. (A) Western blot analysis of the expression of cyclins A, D and E in whole cell extracts derived from U2OS cells exposed to 5, 10 or 20 μM of decoy peptides for 48 h. Cdk2 served as a loading control; (B) Dosage-dependent effects of decoy peptides on Fbxw7 expression. U2OS cells exposed to 5, 10 or 20 μM of decoy peptides were analyzed for Fbxw7 mRNA transcript levels by semi-quantitative RT-PCR. H-actin was co-amplified as an internal control; (C) cyclin-E and Fbxw7 expression was analyzed by semi-quantitative RT-PCR using total RNA from sub-confluent U2OS ER-E2F-1 cells grown with or without OHT and/or cycloheximide (CHX) for 2 h as indicated. H-actin was included as an internal control.

[2] = test system: KRIP-1-associated co-activating function on GAL4-TRIP-Br transcriptional activity; assay: GAL4-TRIP-Br/KRIP-1 luciferase reporter assay in U2OS cells; type: cell-based, human; conditions: 50 μM decoy peptide
Procedure: DNA Transfection and Sequential β-Galactosidase/Luciferase Assay. For luciferase reporter assays, U2OS cells were cultured in 6-well dishes and transfected 24 h later with various reporter plasmids by the calcium precipitation method as previously described (Martin, K., et al. Nature 375, 691-694 (1995)). 24 h following precipitate removal, cells were exposed for 5 h to either vehicle (0.5% DMSO) or 50 μM of decoy peptide, prior to harvesting. Cells were scraped in 200 μl of lysis buffer and a single 10 μl aliquot of lysate was immediately used for sequential measurement of β-galactosidase and luciferase activity using the Dual Light System (Tropix). For protein overexpression experiments, U2OS cells were cultured in 6-well plates at a density of 1×10^5 cells/well and transfected 24 h later with Superfect reagent (QIAGEN).
FIG. 1: TRIP-Br decoy peptides antagonize KRIP-1/TRIP-Br PHD-bromodomain interactions. […] GAL4-KRIP-1 was specifically immunoprecipitated by the agarose-conjugated anti-GAL4 antibody (Lanes 3-5 & 7–10) but not by the non-specific control anti-cyclin E antibody (Lane 6); (B) Antagonism of PHD-bromodomain interactions in vivo. U2OS cells were transiently transfected with 0.4 μg of the indicated GAL4 expression constructs and 1.2 μg of pMT3A/KRIP-1, along with 0.4 μg of the minimal luciferase reporter pG5-GL3 and 0.1 μg of the control reporter pCMV/β-gal. […]

[3] = test system: Caski (cervical carcinoma); assay: Anti-proliferative phenotypes in Caski cells; type: cell-based; conditions: data not shown
[4] = test system: WI-38 cells; assay: Colony formation assay of WI-38 cells (crystal violet); type: cell-based, human; conditions: WI-38, serum-induced, 72 h
Procedure: DNA enzyme transfection. WI-38 cells were rendered quiescent by cultivation in serum-free medium for 72 h before being transfected with DNA enzyme (0.1 μM) using Superfect as reported previously (Santiago, F. S., et al. Nat Med 5, 1264-1269 (1999)) in accordance to manufacturer's recommendations (Qiagen).
Cell proliferation assays. For the BrdU incorporation assays, growth-quiescent WI-38 cells in 96-well dishes were transfected with DNA enzyme and/or 100 ng of pCMV/E2F1, pCMV/DP1, pRSV/Cyclin E, or pCMV/Cdk2 and then exposed to Bromodeoxyuridine (BrdU, 100 μM) in the presence or absence of 10% FBS for 20 h. Bromodeoxyuridine (BrdU) incorporation was monitored with a calorimetric ELISA assay using a cell proliferation kit according to manufacturer's recommendations (Boehringer Mannheim). For manual cell count, growth-quiescent WI-38 cells in 24-well dishes were transfected with DNA enzyme and then exposed to 10% FBS for 72 h. The cells were rinsed with PBS, pH 7.4, and trypsinized, and 10 μl of cell suspension was taken from each sample and mixed with equal volume of trypan blue stain (Sigma, 0.4% w/v in 1×PBS). The number of unstained cells was enumerated manually using a hemocytometer. […] Cells were stained in situ with crystal violet (0.75% w/v hexamethyl-p-rosaniline chloride [SIGMA], 50% ethanol, 1.75% w/v paraformaldehyde, 0.25% w/v NaCl) for 10 min, and then rinsed thoroughly with deionized water to remove excess stains.
FIG. 12: (A) E-Br1 or E-Br2 inhibits cell proliferation. Sub-confluent WI-38 cells were serum-starved for 72 h. Following DNA enzyme transfection, the cultures were re-stimulated with serum and allowed to proliferate. After 72 h, cells were harvested for viable cell count analysis. 10 μl of cell suspension from each sample was mixed with equal volume of 0.4% trypan blue stain. The number of unstained cells was enumerated manually using a hemocytometer. Data represent the average of at least two independent experiments. […] (B) E-Br1 or E-Br2 suppresses colony formation. Sub-confluent WI-38 cells were serum-starved for 72 h. […]

| Substance | cyclin E protein level [1] | protein levels of cyclin D1 and cyclin A2 [1] | KRIP-1-associated co-activating function on GAL4-TRIP-Br transcriptional activity [2] | response of Caski cells [3] | colony forming potential [4] |
| --- | --- | --- | --- | --- | --- |
| ERQIKIWFQNRRMKWKKTGFLTDLTLDDILFADID (ERQIKIWFQNRRMKWKKTGFLTDLTLDDILFADID-NH2) [*Br2] | dose-dependent accumulation of cyclin E protein | without affecting the protein levels | complete abolishment | in manners similar to those exhibited by U2OS cells | – |
| 5′-T TACCCAACAGGCTAGCTACAACGAATATCACA-3′ (DNA TTACCCAACAGGCTAGCTACAACGAATATCACA; DNA, 3' [invdT], backbone not given here) [E-Br2] | – | – | – | – | significantly reduced colony forming potential |
| 5′-T TGCTCAGCAGGCTAGCTACAACGACTTGCTCA-3′ (DNA TTGCTCAGCAGGCTAGCTACAACGACTTGCTCA; DNA, 3' [invdT], backbone not given here) [E-Br1] | – | – | – | – | significantly reduced colony forming potential |
| ERQIKIWFQNRRMKWKKATGCLLDDGLEGLFEDID (ERQIKIWFQNRRMKWKKATGCLLDDGLEGLFEDID-NH2) [*Br1] | dose-dependent accumulation of cyclin E protein | without affecting the protein levels | complete abolishment | in manners similar to those exhibited by U2OS cells | – |
